ChEMBL document CHEMBL1201862, “PubChem BioAssay data set” (2004)
Activity calls are given as the source filed them.

What was measured:
[1] = molecular target: T1, Calpain-2 catalytic subunit (Sus scrofa, UniProt P43367); experiment: pig calpain II inhibitor potency, dose response, biochemical, fluorogenic peptide substrate (AID 1420); type: functional
T1 sequence (P43367 whole entry): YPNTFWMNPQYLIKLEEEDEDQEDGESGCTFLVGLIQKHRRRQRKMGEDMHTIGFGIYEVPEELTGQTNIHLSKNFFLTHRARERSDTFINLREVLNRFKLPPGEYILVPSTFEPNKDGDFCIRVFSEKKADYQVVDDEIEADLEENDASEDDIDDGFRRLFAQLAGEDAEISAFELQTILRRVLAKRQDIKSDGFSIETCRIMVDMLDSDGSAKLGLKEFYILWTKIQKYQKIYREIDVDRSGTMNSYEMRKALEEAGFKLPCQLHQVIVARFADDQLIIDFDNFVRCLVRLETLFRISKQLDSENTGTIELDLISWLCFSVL

[2] = molecular target: Heat shock protein HSP 90-alpha (Homo sapiens, UniProt P07900); type: functional, organism-based
Cytochrome P450 2D6 = Cytochrome P450 2D6 (Homo sapiens, UniProt P10635);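 note: CYP2D6 member of a cytochrome P450 panel assay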
Chain of Cytochrome P450 2D6 (P10635 whole entry): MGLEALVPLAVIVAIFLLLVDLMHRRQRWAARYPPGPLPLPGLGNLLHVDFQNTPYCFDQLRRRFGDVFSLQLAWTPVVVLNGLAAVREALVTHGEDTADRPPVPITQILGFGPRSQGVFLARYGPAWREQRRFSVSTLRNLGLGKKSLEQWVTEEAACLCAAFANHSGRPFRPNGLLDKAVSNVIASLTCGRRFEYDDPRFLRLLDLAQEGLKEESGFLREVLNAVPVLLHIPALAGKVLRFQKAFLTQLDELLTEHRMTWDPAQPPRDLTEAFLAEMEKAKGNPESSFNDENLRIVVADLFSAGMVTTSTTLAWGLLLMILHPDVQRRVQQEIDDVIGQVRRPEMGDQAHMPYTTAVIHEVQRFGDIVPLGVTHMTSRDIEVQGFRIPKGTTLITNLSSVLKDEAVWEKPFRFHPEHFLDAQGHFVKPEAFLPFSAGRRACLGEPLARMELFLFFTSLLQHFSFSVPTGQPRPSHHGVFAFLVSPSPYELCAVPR

Cytochrome P450 2C9 = Cytochrome P450 2C9 (Homo sapiens, UniProt P11712)
Chain of Cytochrome P450 2C9 (P11712 whole entry): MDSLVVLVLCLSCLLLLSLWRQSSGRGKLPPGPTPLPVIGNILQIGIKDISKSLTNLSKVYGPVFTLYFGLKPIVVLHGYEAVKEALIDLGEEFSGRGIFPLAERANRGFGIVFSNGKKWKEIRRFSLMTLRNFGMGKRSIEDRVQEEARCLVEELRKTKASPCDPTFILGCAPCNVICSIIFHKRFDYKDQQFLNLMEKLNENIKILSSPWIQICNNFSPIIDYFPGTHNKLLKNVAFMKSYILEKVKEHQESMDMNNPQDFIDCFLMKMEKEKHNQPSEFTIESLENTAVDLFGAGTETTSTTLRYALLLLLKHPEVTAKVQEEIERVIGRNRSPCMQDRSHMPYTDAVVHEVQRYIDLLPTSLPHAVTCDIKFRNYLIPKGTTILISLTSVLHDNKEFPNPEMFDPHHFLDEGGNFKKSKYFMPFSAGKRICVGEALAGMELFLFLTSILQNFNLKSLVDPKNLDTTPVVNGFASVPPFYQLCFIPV

[3] = molecular target: T2, DNA repair protein RAD52 homolog (Homo sapiens, UniProt P43351); type: functional, biochemical
T2 sequence (P43351 whole entry): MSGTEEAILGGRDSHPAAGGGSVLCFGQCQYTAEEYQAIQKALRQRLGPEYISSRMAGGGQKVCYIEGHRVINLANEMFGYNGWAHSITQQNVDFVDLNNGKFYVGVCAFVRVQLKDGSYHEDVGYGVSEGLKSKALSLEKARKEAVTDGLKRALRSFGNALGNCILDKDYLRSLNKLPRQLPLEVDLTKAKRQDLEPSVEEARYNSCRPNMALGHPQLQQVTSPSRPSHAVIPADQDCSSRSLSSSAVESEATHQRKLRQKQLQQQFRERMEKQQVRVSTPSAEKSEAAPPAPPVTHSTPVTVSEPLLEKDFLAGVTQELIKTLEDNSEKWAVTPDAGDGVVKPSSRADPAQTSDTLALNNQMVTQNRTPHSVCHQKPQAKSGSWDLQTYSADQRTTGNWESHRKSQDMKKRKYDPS

Fatty acid synthase [4] = molecular target: T3, Fatty acid synthase (Homo sapiens, UniProt P49327); experiment: FAS thioesterase domain inhibitors, dose response, biochemical, kinetic fluorescence intensity (AID 624326); type: functional;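 note: rate of fluorescence rise from hydrolysis of a fluorogenic O-methyl fluorescein ester substrate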
T3 sequence (P49327 whole entry, the tested form may be a part): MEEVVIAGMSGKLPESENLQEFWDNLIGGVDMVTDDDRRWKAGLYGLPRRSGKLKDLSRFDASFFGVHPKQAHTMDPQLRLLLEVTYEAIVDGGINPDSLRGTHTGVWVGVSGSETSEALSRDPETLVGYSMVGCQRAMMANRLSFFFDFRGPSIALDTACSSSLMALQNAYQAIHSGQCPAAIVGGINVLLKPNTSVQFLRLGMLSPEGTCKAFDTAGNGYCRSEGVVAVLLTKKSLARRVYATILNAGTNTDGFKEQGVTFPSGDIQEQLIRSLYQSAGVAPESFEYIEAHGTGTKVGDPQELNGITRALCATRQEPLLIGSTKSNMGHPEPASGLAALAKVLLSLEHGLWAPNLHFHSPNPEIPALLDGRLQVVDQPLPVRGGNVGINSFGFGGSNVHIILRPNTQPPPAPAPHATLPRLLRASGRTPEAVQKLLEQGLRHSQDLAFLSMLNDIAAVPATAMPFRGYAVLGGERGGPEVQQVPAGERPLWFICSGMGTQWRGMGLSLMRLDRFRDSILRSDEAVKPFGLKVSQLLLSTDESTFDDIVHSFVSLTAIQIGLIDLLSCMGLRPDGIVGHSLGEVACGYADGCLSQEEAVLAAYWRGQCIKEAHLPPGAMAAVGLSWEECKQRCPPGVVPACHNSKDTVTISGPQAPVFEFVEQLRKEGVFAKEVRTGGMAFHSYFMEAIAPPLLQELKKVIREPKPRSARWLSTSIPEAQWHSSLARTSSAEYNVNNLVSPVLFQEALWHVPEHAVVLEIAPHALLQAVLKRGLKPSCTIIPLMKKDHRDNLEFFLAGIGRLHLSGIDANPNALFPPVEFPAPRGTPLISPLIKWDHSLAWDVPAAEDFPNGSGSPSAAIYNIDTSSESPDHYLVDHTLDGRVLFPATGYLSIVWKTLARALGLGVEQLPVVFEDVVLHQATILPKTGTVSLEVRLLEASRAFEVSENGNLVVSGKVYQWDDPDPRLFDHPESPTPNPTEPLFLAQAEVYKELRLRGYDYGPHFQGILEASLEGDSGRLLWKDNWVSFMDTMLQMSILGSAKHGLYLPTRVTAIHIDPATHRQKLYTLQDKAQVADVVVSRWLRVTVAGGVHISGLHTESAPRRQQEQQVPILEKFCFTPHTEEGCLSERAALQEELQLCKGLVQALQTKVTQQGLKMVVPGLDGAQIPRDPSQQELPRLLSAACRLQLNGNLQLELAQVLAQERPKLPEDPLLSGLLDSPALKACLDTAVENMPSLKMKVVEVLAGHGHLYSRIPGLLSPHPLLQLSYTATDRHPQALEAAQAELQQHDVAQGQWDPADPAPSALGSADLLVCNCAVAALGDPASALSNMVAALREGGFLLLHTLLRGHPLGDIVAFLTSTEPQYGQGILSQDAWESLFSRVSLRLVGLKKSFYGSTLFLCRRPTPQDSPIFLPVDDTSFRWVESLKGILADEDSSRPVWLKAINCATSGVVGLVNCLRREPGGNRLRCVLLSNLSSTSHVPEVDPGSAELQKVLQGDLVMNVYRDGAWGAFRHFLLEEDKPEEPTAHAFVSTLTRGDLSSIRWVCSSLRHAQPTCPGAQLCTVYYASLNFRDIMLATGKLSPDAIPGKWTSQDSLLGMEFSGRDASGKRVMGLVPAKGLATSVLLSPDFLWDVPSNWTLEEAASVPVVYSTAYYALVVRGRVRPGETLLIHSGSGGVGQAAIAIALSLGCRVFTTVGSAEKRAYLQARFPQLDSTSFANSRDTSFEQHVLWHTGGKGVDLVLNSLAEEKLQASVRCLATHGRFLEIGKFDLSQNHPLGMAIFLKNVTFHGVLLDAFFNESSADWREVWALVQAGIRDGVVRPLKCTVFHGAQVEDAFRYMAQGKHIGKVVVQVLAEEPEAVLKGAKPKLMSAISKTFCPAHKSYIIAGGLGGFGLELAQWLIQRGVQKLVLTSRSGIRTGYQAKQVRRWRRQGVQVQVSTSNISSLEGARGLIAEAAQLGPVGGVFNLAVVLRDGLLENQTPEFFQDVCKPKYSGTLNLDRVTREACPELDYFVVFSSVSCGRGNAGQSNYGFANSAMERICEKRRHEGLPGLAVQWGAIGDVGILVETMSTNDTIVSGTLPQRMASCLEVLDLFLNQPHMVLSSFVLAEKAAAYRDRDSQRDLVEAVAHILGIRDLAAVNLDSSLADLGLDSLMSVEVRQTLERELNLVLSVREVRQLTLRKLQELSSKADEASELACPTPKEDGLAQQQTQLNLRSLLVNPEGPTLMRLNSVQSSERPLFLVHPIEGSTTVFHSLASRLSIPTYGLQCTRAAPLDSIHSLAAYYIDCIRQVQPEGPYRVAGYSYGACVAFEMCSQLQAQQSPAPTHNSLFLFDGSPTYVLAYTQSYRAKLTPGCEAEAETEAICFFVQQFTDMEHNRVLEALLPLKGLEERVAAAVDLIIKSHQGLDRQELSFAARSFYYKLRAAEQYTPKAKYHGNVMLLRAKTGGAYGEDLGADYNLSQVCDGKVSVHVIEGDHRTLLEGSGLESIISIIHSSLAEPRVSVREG

Fatty acid synthase [5] = molecular target: T3, Fatty acid synthase; experiment: FAS thioesterase domain inhibitors, dose response, biochemical, endpoint fluorescence intensity, uHTS hits (AID 624327); type: functional;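 note: fluorescence from hydrolysis of an O-methyl fluorescein acyl ester substrate by the enzyme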
Cytochrome P450 2C19 = Cytochrome P450 2C19 (Homo sapiens, UniProt P33261); experiment: Cytochrome panel assay with activity outcomes. Panel member name: p450-cyp2c19 Compounds with AC50 equal or less than 10 uM are considered active; type: functional
Chain of Cytochrome P450 2C19 (P33261 whole entry): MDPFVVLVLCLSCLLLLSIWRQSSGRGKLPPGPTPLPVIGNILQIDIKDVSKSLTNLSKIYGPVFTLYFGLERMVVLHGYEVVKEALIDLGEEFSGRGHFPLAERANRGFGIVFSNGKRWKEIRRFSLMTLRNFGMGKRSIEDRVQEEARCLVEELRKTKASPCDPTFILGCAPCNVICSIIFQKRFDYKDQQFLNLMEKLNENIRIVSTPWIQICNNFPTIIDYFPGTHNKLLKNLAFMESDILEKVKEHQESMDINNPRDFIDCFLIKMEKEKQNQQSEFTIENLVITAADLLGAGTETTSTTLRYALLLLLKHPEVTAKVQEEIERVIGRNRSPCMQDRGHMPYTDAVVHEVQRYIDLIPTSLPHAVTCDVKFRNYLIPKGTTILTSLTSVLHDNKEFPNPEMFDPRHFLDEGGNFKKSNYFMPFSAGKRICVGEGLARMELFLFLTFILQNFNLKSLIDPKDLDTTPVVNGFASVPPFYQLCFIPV

[6] = inhibitors of intracellular T. cruzi replication, confirmation, NIH3T3 host cells, beta-gal luminescence (AID 2044); type: functional, cell-based;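 note: intracellular parasites grown in NIH/3T3 mouse fibroblasts as host cells; luminescent beta-galactosidase reporter signal from transgenic T. cruzi replicating inside host cells; inhibitors lower the luminescence signal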
HEK293 [7] = experiment: inhibitors of LMP1-driven NF-kB reporter, dose response, cell-based, HEK293, luciferase, cherry-pick (AID 588343); type: functional; conditions: Homo sapiens
[8] = cytotoxicity toward NIH3T3 fibroblasts, dose response, counter-screen, cell-based, ATP luminescence, mouse fibroblasts (AID 2010); type: functional;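 note: cells exposed to compound for about 90 hours before reading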
[9] = inhibitors of HIV Env-driven cell fusion, dose response, cherry-pick (AID 652057); type: functional, cell-based
Protein RecA = molecular target: T4, Protein RecA (Mycobacterium tuberculosis, UniProt P9WHJ3); experiment: Fluorescence Cell-Free Homogeneous Dose Retest to Identify Inhibitors of RecA-Intein Splicing Activity. [Related pubchem assays (depositor defined):AID2097, AID2223, AID489010, AID492950]; type: functional
T4 sequence (P9WHJ3 whole entry): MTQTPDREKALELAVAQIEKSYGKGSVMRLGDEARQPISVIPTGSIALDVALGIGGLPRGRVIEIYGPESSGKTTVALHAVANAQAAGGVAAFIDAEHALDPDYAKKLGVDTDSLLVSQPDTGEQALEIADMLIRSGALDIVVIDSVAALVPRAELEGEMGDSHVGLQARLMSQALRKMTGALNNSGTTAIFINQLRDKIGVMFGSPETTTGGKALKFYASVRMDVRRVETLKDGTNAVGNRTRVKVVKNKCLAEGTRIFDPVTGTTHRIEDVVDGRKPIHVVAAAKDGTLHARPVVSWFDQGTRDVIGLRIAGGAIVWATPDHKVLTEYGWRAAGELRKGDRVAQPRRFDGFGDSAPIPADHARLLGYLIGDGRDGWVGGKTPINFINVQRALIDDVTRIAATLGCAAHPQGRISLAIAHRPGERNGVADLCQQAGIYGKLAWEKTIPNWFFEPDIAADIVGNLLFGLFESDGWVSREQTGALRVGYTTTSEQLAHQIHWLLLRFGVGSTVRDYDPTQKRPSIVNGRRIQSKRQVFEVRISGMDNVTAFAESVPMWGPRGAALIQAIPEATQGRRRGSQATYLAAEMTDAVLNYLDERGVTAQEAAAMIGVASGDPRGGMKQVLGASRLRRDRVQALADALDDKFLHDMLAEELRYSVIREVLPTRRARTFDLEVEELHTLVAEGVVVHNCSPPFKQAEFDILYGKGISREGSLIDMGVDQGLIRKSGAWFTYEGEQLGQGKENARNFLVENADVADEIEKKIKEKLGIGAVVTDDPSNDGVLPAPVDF

[10] = Luminescence Cell-Based Dose Response HTS to Identify Activators of Luciferase Translation or Activity in H4 […] Cells. [Related pubchem assays: 1829 (Project Summary), 1814 (Primary HTS)]; type: functional
[11] = molecular target: T5, Replicative DNA helicase DnaB (Mycobacterium tuberculosis, UniProt P9WMR3); experiment: DnaB intein splicing inhibitors, dose response, biochemical, cell-free fluorescence (AID 449749); type: functional
T5 sequence (P9WMR3 whole entry): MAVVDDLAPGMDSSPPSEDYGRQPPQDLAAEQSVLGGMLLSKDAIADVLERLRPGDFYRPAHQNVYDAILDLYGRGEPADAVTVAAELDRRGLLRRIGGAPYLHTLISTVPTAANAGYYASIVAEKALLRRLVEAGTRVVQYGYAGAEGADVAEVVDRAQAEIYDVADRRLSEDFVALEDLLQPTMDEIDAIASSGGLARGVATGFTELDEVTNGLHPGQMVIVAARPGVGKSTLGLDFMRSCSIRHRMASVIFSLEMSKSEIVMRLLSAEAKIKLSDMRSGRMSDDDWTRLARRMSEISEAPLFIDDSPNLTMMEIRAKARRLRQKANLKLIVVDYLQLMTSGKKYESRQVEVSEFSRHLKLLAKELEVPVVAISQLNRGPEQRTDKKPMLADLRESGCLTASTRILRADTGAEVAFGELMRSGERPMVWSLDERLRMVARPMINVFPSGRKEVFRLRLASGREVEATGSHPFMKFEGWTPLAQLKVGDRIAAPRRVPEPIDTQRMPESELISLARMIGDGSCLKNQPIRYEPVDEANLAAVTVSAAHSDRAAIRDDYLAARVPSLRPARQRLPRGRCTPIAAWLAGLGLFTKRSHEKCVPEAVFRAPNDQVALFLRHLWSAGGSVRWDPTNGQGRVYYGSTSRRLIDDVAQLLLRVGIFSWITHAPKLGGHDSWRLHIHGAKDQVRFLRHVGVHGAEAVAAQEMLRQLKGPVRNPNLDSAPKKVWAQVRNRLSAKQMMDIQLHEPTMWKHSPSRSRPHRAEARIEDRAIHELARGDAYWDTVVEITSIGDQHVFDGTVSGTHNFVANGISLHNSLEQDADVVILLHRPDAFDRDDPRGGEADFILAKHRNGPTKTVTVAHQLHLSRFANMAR

Cytochrome P450 3A4 = Cytochrome P450 3A4 (Homo sapiens, UniProt P08684);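 note: CYP3A4 tested as one member of a cytochrome P450 panel screen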
Chain of Cytochrome P450 3A4 (P08684 whole entry): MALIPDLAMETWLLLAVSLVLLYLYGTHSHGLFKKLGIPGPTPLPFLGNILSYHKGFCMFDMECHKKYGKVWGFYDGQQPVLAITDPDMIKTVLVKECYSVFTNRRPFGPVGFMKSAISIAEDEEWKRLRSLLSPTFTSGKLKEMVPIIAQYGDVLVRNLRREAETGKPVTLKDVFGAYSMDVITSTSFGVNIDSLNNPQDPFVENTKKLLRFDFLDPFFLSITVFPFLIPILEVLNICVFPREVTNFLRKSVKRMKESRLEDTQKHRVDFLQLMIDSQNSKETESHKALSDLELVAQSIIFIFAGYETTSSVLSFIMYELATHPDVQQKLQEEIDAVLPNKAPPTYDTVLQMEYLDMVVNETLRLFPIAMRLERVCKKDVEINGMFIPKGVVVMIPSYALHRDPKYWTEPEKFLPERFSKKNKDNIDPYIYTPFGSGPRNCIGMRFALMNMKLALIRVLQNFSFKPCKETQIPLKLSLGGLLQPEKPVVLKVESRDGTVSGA

[12] = molecular target: T6, Heat shock factor protein 1 (Mus musculus, UniProt P38532); experiment: HSF1 potentiators in luciferase reporter cells, confirmation, cell-based, NIH3T3, luminescence, dose retest (AID 435004); type: functional;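 note: stress induced by proteasome inhibitor MG132 added 30 min after compound; luciferase reporter driven by HSF1 response element in NIH3T3 cells; actives raise luminescence as potentiators of the MG132 stress response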
T6 sequence (P38532 whole entry): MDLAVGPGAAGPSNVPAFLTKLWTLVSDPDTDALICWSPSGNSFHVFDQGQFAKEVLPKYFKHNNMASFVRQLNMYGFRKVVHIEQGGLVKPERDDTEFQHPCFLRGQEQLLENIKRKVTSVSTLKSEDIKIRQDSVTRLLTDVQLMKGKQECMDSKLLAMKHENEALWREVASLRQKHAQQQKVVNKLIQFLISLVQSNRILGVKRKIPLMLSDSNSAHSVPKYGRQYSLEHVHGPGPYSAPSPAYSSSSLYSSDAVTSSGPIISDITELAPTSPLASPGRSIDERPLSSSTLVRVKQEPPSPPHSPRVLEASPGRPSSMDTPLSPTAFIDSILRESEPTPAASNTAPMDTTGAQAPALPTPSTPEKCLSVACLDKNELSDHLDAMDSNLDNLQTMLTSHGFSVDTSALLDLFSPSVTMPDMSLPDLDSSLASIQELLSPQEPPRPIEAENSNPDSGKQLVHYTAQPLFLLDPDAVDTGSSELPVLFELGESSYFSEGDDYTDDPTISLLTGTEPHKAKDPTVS

Paired box protein Pax-8 = Paired box protein Pax-8 (Homo sapiens, UniProt Q06710); experiment: inhibitors of PAX8-driven TPO luciferase reporter, dose response, RMG-I cells, cherry-pick (AID 687027); type: functional, cell-based;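 note: luciferase reporter driven by Pax8 target thyroperoxidase promoter measured by SteadyGlo luminescence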
Chain of Paired box protein Pax-8 (Q06710 whole entry): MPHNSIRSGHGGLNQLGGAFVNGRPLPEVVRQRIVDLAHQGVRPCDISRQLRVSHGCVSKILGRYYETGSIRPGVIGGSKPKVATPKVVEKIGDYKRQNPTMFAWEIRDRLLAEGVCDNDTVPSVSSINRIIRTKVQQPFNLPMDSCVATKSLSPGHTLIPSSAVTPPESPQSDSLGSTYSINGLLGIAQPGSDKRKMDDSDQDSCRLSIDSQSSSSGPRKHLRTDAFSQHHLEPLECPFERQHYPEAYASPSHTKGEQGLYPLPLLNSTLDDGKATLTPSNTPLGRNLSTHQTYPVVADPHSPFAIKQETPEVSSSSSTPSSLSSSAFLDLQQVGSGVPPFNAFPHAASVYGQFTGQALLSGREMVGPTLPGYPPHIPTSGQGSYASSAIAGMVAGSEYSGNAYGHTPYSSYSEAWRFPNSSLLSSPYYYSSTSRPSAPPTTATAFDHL

SN12K1 = experiment: cells; type: functional; conditions: Homo sapiens
[13] = inhibitors of clade B AD8 Env fusion, dose response, cell-based, cherry-pick (AID 652062); type: functional;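 note: luciferase signal from cell-cell fusion driven by HIV-1 clade B AD8 Env; potency is for inhibitors of fusion seen as a drop in luminescence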
HEK293 [14] = experiment: NOD1 signaling inhibitors, primary screen, cell-based, luminescence, uHTS (AID 1578); type: functional; conditions: Homo sapiens
HEK293 [15] = experiment: cells; type: functional, cell-based; conditions: Homo sapiens
HEK293 [16] = experiment: cells; type: functional, cell-based; conditions: Homo sapiens; remark: listed apart in the source
[17] = Luminescence Cell-Based Dose Retest to Confirm Inhibitors of Cancer Stem Cells. [Related pubchem assays (depositor defined):AID2717, AID2721]; type: functional, Homo sapiens; conditions: Homo sapiens
HEK293 [18] = experiment: NOD2 signaling inhibitors in MDP-stimulated cells, cell-based, uHTS, luminescence (AID 2001); type: functional; conditions: Homo sapiens
HEK293 [19] = experiment: cells; type: functional, cell-based; conditions: Homo sapiens; remark: listed apart in the source
[20] = molecular target: Nucleotide-binding oligomerization domain-containing protein 2 (Homo sapiens, UniProt Q9HC29); experiment: NOD2 signaling inhibitors, cell-based, luminescence, uHTS, HEK293 (AID 1566); type: functional

Cc1ccc(C(=O)N2CCN(c3ccccc3Cl)CC2)cc1[N+](=O)[O-]
IC50 [1]: > 50 µM (not active) | AC50 [2]: 4.18 µM (active)

Nc1nc(-c2ccccc2)c(-c2ccccc2)s1
AC50 (Cytochrome P450 2D6): 15.8 µM (inconclusive) | AC50 (Cytochrome P450 2C9): inconclusive

CN(C)CCCNC(=O)C[C@H]1C[C@H](C(=O)N2CCOCC2)[C@@]2(CCC3CCCC3)c3[nH]c4cc(-c5ccco5)ccc4c3CCN2C1=O
AC50 [3]: 11.2 µM (active) | IC50 (Fatty acid synthase [4]): 5.89 µM (active) | IC50 (Fatty acid synthase [5]): 5.74 µM (active)

C#CCCCO/N=C1/[C@H]2O[C@@H]2[C@@H](O)[C@H]2[C@H]1CCn1c(=O)n(Cc3cc4c(cc3Cl)OCO4)c(=O)n12
AC50 (Cytochrome P450 2C19): inconclusive | AC50 (Cytochrome P450 2C9): inconclusive

O=C(Nc1ccc(Cl)c(Cl)c1)Nc1nc(-c2ccccc2)cs1
EC50 [6]: 1.52 µM (active) | AC50 (HEK293 [7]): 24.9 µM (active) | EC50 [8]: > 60 µM (not active)

COc1cc(C)nc(N2CCCC(C(=O)Nc3cc(Cl)ccc3OC)C2)n1 (centres undefined)
AC50 (Cytochrome P450 2C9): inconclusive

O=[N+]([O-])c1ccc(N2CCN(Cc3cccc([N+](=O)[O-])c3)CC2)cc1
AC50 (HEK293 [7]): 52.6 µM (active)

Cc1ccc(CNC(=O)C2CC(c3ccccc3[N+](=O)[O-])=NO2)o1 (centres undefined)
AC50 (Cytochrome P450 2C9): inconclusive

CCCCNC(=O)C[C@H]1C[C@@]2(C(=O)OC)C(=C[C@H](C(C)(C)C)O[C@@H]2C)N(Cc2ccc3c(c2)OCO3)C1=O
AC50 [9]: 19.8 µM (active)

COc1ccc(Nc2cnn(-c3nc4ccccc4s3)c(=O)c2Cl)cc1
EC50 (Protein RecA): 4.01 µM (active) | EC50 [10]: 0.198 µM (active) | AC50 [11]: > 380 µM (inactive) | AC50 [2]: 3.21 µM (active)

O=C(NCCCN1CCOCC1)C1COc2ccccc2O1 (centres undefined)
AC50 (Cytochrome P450 2C19; read-out: AC50): 17.8 µM (inconclusive) | AC50 (Cytochrome P450 3A4): 14.1 µM (inconclusive) | AC50 (Cytochrome P450 2D6): 7.94 µM (inconclusive) | AC50 (Cytochrome P450 2C9): inconclusive

Cc1cc(Sc2nnc(N)s2)c2ccccc2n1
EC50 [12]: 14.6 µM (active) | AC50 (HEK293 [7]): 3.03 µM (active) | AC50 (Paired box protein Pax-8): 4.58 µM (active)

CCN1CCN(Cc2ccc(NC(=O)c3ccc(C)c(NC(=O)c4csc(-c5ccncc5)n4)c3)cc2C(F)(F)F)CC1
AC50 [3]: 33.6 µM (active)

O=C(c1cccc(C(F)(F)F)c1)N1CCC(O)(CS(=O)(=O)Cc2ccccc2)CC1
AC50 (Cytochrome P450 3A4): 3.16 µM (inconclusive) | AC50 (Cytochrome P450 2C9): inconclusive

C[C@]12CC[C@@H]3c4ccc(OC(=O)N(CCCl)CCCl)cc4CC[C@H]3[C@@H]1CC[C@@H]2O [ESTRAMUSTINE]
GI50 (SN12K1): 0.025 µM (active)

O=C(COc1ccc(-n2cnnn2)cc1)Nc1ccc(F)c(F)c1
AC50 [13]: 1.42 µM (active)

Cc1ccc(C(=O)NC(=C(Cl)Cl)S(=O)(=O)c2ccc(C)cc2)cc1
EC50 (HEK293 [14]): 2.46 µM (active) | IC50 (HEK293 [15]): > 20 µM (inactive) | IC50 (HEK293 [16]): 6.28 µM (active) | AC50 [17]: 4.39 µM (active) | IC50 (HEK293 [18]): 5.55 µM (active) | IC50 (HEK293 [19]): > 20 µM (inactive) | EC50 [20]: 14.6 µM (active)
